According to patent publication US7115603B2, “A1-pyrrolines” (priority 2001, dated 2006):
Where two headings read alike, the source gives them in different places. Blank lines part the entries; values can stand above or below the compound they belong to.

Experiments:
[1] = log P by HPLC on reversed-phase column (EEC Directive 79/831 Annex V.A8); format: physicochemical
Procedure: The log p values reported in the above tables and preparation examples are determined in accordance with EEC Directive 79/831 Annex V.A8 by means of HPLC (high performance liquid chromatography) on a reversed-phase column (C 18). Temperature: 43° C.
Determination is carried out in the acidic range at a pH of 2.3 using 0.1% aqueous phosphoric acid and acetonitrile as mobile phases; linear gradient from 10% acetonitrile to 90% acetonitrile. The values are marked in the tables with ^a).
Determination takes place in the neutral range at a pH of 7.5 with 0.01-molar aqueous phosphate buffer solution and acetonitrile as mobile phases; linear gradient from 10% acetonitrile to 90% acetonitrile. The values are marked in the tables with ^b).
The calibration is carried out using unbranched alkan-2-ones (having from 3 to 16 carbon atoms) whose logP values are known (logP values determined on the basis of the retention times, using linear interpolation between two successive alkanones).

[2] = test system: larvae of the mustard beetle (Phaedon cochleariae); assay: Phaedon larvae test (cabbage leaves dipped); format: in vivo; conditions: 168 h, kill, 7 d, read-out: Efficacy in % after 7 d; for pest or weed control at 100 ppm: 100 ppm active compound
Procedure: (§1) [table] To produce a suitable preparation of active compound, 1 part by weight of active compound is mixed with the stated amounts of solvent and emulsifier, and the concentrate is diluted with emulsifier-containing water to the desired concentration. Cabbage leaves (Brassica oleracea) are treated by being dipped into the preparation of active compound of the desired concentration and are populated with larvae of the mustard beetle (Phaedon cochleariae) whilst the leaves are still moist. After the desired period of time, the kill in % is determined. 100% means that all beetle larvae have been killed; 0% means that none of the beetle larvae has been killed.

[3] = test system: army worm (Spodoptera frugiperda) caterpillars; assay: Spodoptera frugiperda test (cabbage leaves dipped); format: in vivo; conditions: 168 h, kill, 100 ppm active compound, 7 d, read-out: Efficacy in % after 7 d
Procedure: as §1, with “army worm (Spodoptera frugiperda) caterpillars” for “larvae of the mustard beetle (Phaedon cochleariae)”, “caterpillars” for “beetle larvae”

[4] = test system: Heliothis virescens caterpillars; assay: Heliothis virescens test (soya bean shoots dipped); format: in vivo; conditions: kill, 100 ppm active compound
Procedure: as §1, with “Soya bean shoots (Glycine max)” for “Cabbage leaves (Brassica oleracea)”, “Heliothis virescens caterpillars” for “larvae of the mustard beetle (Phaedon cochleariae)”, “caterpillars” for “beetle larvae”

[5] = test system: army worm (Spodoptera exigua) caterpillars; assay: Spodoptera exigua test (cabbage leaves dipped); format: in vivo; conditions: kill
Procedure: as §1, with “army worm (Spodoptera exigua) caterpillars” for “larvae of the mustard beetle (Phaedon cochleariae)”, “caterpillars” for “beetle larvae”

Lucilia cuprina larvae = assay: Blowfly larvae test/development-inhibiting effect; format: in vivo; conditions: for mortality at 100 ppm: 100 ppm active compound; for mortality at 20 ppm: 20 ppm active compound
Procedure: 20 mg of active compound are dissolved in 1 ml of dimethyl sulphoxide; lower concentrations are prepared by dilution with distilled water.
About 20 Lucilia cuprina larvae are introduced into a test tube containing about 1 cm^3 of horse meat and 0.5 ml of the test preparation of active compound. After 24 and 48 hours, the activity of the preparation is determined. The test tubes are transferred to beakers with their bases covered with sand. After a further 14 days, the test tubes are removed and the pupae/flies are counted.
The effect of the preparation is assessed according to the number of flies which have hatched after 1.5 times the development period of an untreated control. 100% means that no flies have hatched; 0% means that all of the flies have hatched normally.

[6] = test system: cabbage moth (Plutella xylostella) caterpillars; assay: Plutella test (cabbage leaves dipped); format: in vivo; conditions: kill
Procedure: as §1, with “cabbage moth (Plutella xylostella) caterpillars” for “larvae of the mustard beetle (Phaedon cochleariae)”, “caterpillars” for “beetle larvae”

[7] = test system: greenhouse red spider mite (Tetranychus urticae); assay: Tetranychus test (OP resistant/dip treatment); format: in vivo; conditions: kill of spider mites, 100 ppm active compound
Procedure: [table] To produce a suitable preparation of active compound, 1 part by weight of active compound is mixed with the stated amounts of solvent and emulsifier, and the concentrate is diluted with emulsifier-containing water to the desired concentration. Bean plants (Phaseolus vulgaris) which are heavily infested by all stages of the greenhouse red spider mite (Tetranychus urticae) are dipped into a preparation of active compound of the desired concentration. After the desired period of time, the effect in % is determined. 100% means that all spider mites have been killed; 0% means that none of the spider mites has been killed.

[8] = test system: cotton aphid (Aphis gossypii); assay: Aphis gossypii test (cotton leaves dipped); format: in vivo; conditions: kill, 100 ppm active compound
Procedure: as §1, with “Cotton” for “Cabbage”, “(Gossypium hirsutum) heavily infested by the cotton aphid (Aphis gossypii)” for “(Brassica oleracea)”, “concentration.” for “concentration and are populated with larvae of the mustard beetle (Phaedon cochleariae) whilst the leaves are still moist.”, “[…]” for “beetle larvae”

[9] = test system: fruit tree red spider mite (Panonychus ulmi); assay: Panonychus test (plum trees dipped); format: in vivo; conditions: kill of spider mites, 100 ppm active compound
Procedure: To produce a suitable preparation of active compound, 1 part by weight of active compound is mixed with the stated amounts of solvent and emulsifier, and the concentrate is diluted with emulsifier-containing water to the desired concentration.
Plum trees (Prunus domestica) about 30 cm high which are heavily infested by all stages of the fruit tree red spider mite (Panonychus ulmi) are dipped into a preparation of active compound of the desired concentration.
After the desired period of time, the effect in % is determined. 100% means that all spider mites have been killed; 0% means that none of the spider mites has been killed.

[10] = test system: caterpillars of the cotton bollworm (Heliothis armigera); assay: Heliothis armigera test (soya bean shoots dipped); format: in vivo; conditions: kill, 20 ppm active compound
Procedure: as §1, with “concentration. Soya bean shoots (Glycine max)” for “concentration. Cabbage leaves (Brassica oleracea)”, “with caterpillars” for “with larvae”, “the cotton bollworm (Heliothis armigera)” for “the mustard beetle (Phaedon cochleariae)”, “all […]” for “all beetle larvae”, “the caterpillars” for “the beetle larvae”

[11] = reversed-phase HPLC column (C18); HPLC, acidic range pH 2.3, marked a)
[12] = reversed-phase HPLC column (C18); HPLC, neutral range pH 7.5, marked b)
[13] = 336 h, 14 d, inhibition of fly hatching, read-out: % Activity/kill (14 d)

chromatographic logP [1, 11]: 2.92
Structure (SMILES): CCOc1ccc(Br)cn1 [III-1, 5-bromo-2-ethoxypyridine]

chromatographic logP [1, 11]: 2.92
Structure (SMILES): CCOc1ccc(-c2ccc(C3CCC(c4c(F)cccc4F)=N3)cc2)cn1 (stereo not drawn) [No. 1, 5-{4-[5-(2,6-difluorophenyl)-3,4-dihydro-2H-pyrrol-2-yl]phenyl}-2-ethoxypyridine]
pest or weed control at 100 ppm [2]: 100%
pest or weed control at 100 ppm [3]: 100%

Structure (SMILES): CCSc1ccc(-c2ccc(C3CCC(c4c(F)cccc4F)=N3)cc2)cn1 (stereo not drawn) [compound 4]
Efficacy in % after 7 d [4]: 100%
Efficacy in % after 7 d ([5]; 100 ppm active compound): 100%
chromatographic logP [1, 11]: 3.29
chromatographic logP [1, 12]: 4.54
mortality at 100 ppm (Lucilia cuprina larvae; [13]): 100%
Efficacy in % after 7 d ([6]; 100 ppm active compound): 100%
pest or weed control at 100 ppm [2]: 100%
pest or weed control at 100 ppm [3]: 100%
Efficacy in % after 7 d [7]: 95%

chromatographic logP [1, 11]: 3.42
chromatographic logP [1, 12]: 4.77
Structure (SMILES): CCCOc1ccc(-c2ccc(C3CCC(c4c(F)cccc4F)=N3)cc2)cn1 (stereo not drawn) [compound 5]
Efficacy in % after 6 d [8]: 99%
Efficacy in % after 7 d [4]: 100%
Efficacy in % after 7 d ([5]; 100 ppm active compound): 100%
Efficacy in % after 7 d ([6]; 100 ppm active compound): 100%
pest or weed control at 100 ppm [2]: 100%
pest or weed control at 100 ppm [3]: 100%
Efficacy in % after 7 d [7]: 98%

chromatographic logP [1, 11]: 3.42
chromatographic logP [1, 12]: 4.73
Structure (SMILES): CC(C)Oc1ccc(-c2ccc(C3CCC(c4c(F)cccc4F)=N3)cc2)cn1 (stereo not drawn) [compound 7]
Efficacy in % after 6 d [8]: 99%
Efficacy in % after 7 d [4]: 100%
Efficacy in % after 7 d ([5]; 100 ppm active compound): 100%
Efficacy in % after 7 d ([6]; 100 ppm active compound): 100%
pest or weed control at 100 ppm [2]: 100%
Efficacy in % after 7 d [9]: 100%
pest or weed control at 100 ppm [3]: 100%

chromatographic logP [1, 11]: 3.8
chromatographic logP [1, 12]: 4.96
Structure (SMILES): CC(C)Sc1ccc(-c2ccc(C3CCC(c4c(F)cccc4F)=N3)cc2)cn1 (stereo not drawn) [compound 8]
Efficacy in % after 7 d [4]: 100%
Efficacy in % after 7 d ([5]; 100 ppm active compound): 100%
Efficacy in % after 7 d ([6]; 100 ppm active compound): 100%
pest or weed control at 100 ppm [2]: 100%
pest or weed control at 100 ppm [3]: 100%
Efficacy in % after 7 d [7]: 98%

Structure (SMILES): Fc1cccc(F)c1C1=NC(c2ccc(-c3ccc(OC4CCC4)nc3)cc2)CC1 (stereo not drawn) [compound 19]
chromatographic logP [1, 11]: 3.66
chromatographic logP [1, 12]: 4.9
mortality at 20 ppm (Lucilia cuprina larvae; [13]): 100%
mortality at 100 ppm (Lucilia cuprina larvae; [13]): 100%
pest or weed control at 20 ppm ([2]; 20 ppm active compound): 100%
pest or weed control at 100 ppm [3]: 100%
Efficacy in % after 7 d [7]: 95%

chromatographic logP [1, 11]: 3.99
chromatographic logP [1, 12]: 5.34
Structure (SMILES): Fc1cccc(F)c1C1=NC(c2ccc(-c3ccc(OC4CCCC4)nc3)cc2)CC1 (stereo not drawn) [compound 21]
pest or weed control at 100 ppm [2]: 100%
pest or weed control at 100 ppm [3]: 100%
Efficacy in % after 7 d [7]: 95%

Structure (SMILES): Fc1cccc(F)c1C1=NC(c2ccc(-c3ccc(OCC4CC4)nc3)cc2)CC1 (stereo not drawn) [compound 25]
Efficacy in % after 7 d ([5]; 20 ppm active compound): 100%
Efficacy in % after 7 d [10]: 100%
chromatographic logP [1, 11]: 3.48
chromatographic logP [1, 12]: 4.67
mortality at 100 ppm (Lucilia cuprina larvae; 48 h, read-out: % Activity/kill (48 h)): 100%
mortality at 20 ppm (Lucilia cuprina larvae; [13]): 100%
Efficacy in % after 7 d ([6]; 20 ppm active compound): 100%
pest or weed control at 100 ppm [2]: 100%
pest or weed control at 100 ppm [3]: 100%
